Experimental findings from US12662465B2, “EGFR inhibitors” (Blueprint Medicines Corporation, priority 2021, dated 2026) are described below.

Where two headings read alike, the source gives them in different places.

One assay addresses T1, EGFR L858R (Homo sapiens, UniProt P00533, L858R).
T1 construct: purchased SignalChem E10-122BG
The experiment in a line: Biochemical EGFR inhibition assay (Caliper mobility shift), EGFR L858R. Conditions: read-out: Enz EGFR_L858R IC50.

A further assay has as its target T2, EGFR (d746-750) (Homo sapiens, UniProt P00533, DEL746-750).
T2 construct: purchased SignalChem E10-122JG
Kind of assay: Biochemical EGFR inhibition assay (Caliper mobility shift), EGFR (d746-750). To be noted: read-out: Enz EGFR_Exon19-del746-750 IC50.

The target of assay [1] is intracellular phosphorylation of EGFR (Tyr1068) in PC-9 cells (Ex19Del) (Homo sapiens, UniProt P00533, DEL746-750). Kind of assay: PC-9 pEGFR AlphaLISA assay. In kind it is cell-based. Conditions: 4 hours compound incubation, read-out: Ext pEGFR_PC-9 Ex19Del IC50. On the technique in general: Alpha assays give light when donor and acceptor beads are brought close together.

Where [2] appears, read: 1.0 mM ATP or ATP Km, room temperature (25° C.).

Sequence of intracellular phosphorylation of EGFR (Tyr1068) in PC-9 cells (Ex19Del) (P00533 with tags, fused parts or gaps DEL746-750): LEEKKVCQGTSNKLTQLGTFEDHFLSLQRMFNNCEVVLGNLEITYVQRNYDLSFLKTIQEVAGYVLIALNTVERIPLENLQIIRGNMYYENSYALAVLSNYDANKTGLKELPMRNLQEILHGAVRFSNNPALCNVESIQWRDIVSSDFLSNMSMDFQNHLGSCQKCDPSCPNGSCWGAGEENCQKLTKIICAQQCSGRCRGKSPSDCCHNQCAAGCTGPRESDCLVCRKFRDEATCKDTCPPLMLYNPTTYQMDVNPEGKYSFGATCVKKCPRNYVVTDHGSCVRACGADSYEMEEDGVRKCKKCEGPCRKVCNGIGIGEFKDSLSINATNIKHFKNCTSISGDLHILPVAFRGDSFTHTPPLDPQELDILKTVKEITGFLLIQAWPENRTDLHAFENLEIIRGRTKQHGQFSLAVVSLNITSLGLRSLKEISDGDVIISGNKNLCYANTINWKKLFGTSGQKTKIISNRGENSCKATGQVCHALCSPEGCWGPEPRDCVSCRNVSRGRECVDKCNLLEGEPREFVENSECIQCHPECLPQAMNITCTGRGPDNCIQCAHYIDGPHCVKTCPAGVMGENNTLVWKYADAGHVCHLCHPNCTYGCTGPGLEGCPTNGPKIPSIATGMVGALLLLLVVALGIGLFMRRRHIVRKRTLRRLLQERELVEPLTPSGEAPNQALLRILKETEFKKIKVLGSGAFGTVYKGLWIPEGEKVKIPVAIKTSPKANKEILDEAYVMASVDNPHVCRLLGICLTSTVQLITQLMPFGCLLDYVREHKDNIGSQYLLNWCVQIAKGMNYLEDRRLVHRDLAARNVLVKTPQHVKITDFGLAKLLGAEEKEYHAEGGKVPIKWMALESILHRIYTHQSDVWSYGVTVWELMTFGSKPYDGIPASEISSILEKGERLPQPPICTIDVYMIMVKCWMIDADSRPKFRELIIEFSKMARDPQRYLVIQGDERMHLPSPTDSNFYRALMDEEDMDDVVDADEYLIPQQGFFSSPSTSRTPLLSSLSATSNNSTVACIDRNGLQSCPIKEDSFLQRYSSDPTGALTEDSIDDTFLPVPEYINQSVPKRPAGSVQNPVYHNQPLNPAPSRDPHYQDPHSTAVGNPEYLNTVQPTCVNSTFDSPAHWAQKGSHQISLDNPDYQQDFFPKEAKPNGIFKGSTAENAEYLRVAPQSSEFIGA
T1 sequence (P00533 25-1210 L858R): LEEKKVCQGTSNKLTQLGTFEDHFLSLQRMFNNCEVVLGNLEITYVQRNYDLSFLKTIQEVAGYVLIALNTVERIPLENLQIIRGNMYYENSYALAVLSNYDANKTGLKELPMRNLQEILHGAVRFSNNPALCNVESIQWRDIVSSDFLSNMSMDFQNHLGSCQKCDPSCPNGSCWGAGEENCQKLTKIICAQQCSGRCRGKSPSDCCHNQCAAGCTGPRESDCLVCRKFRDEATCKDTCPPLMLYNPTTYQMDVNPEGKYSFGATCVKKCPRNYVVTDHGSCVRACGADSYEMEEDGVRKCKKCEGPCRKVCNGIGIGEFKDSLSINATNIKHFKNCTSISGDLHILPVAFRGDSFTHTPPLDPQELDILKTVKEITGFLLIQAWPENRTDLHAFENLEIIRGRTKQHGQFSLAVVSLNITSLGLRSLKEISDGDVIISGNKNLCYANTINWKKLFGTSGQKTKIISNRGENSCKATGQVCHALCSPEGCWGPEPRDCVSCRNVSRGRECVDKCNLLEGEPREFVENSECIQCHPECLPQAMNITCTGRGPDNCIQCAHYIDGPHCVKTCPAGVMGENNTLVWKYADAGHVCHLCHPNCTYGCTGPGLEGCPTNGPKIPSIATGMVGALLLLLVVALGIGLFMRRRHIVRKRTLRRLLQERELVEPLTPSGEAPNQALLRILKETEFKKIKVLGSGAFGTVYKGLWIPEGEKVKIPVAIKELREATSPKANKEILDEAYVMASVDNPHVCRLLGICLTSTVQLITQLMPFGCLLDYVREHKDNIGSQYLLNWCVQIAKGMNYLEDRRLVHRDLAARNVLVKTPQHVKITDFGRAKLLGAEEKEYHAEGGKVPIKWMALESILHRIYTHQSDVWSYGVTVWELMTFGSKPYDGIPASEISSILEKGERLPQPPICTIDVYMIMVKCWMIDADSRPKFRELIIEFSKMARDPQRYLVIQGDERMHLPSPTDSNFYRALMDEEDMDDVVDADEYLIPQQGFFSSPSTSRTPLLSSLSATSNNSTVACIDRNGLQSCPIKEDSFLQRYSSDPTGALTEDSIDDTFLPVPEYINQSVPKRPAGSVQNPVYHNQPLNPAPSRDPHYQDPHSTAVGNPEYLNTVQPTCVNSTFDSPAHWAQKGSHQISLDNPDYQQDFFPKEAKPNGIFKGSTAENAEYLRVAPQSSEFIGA
T2 sequence (P00533 with tags, fused parts or gaps DEL746-750 limits assumed): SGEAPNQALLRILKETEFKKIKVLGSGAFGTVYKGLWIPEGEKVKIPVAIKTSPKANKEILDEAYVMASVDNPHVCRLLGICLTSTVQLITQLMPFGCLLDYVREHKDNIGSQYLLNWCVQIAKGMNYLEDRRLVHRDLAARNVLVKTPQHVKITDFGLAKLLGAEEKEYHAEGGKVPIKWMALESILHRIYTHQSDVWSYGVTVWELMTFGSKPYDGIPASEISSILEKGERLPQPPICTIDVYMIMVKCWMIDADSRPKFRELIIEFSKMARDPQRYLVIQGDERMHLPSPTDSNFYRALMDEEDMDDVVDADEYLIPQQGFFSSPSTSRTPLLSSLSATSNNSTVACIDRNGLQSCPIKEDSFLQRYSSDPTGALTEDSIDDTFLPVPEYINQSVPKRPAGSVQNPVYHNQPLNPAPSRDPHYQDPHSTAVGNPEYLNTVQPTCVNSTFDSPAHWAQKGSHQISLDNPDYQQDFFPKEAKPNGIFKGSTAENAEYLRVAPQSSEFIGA

Take `CN(C)CC1(COc2cc(-c3cnn(C)c3)cc3ncnc(Nc4ccc5ncccc5c4F)c23)COC1` [Example 12, 5-((3-((dimethylamino)methyl)oxetan-3-yl)methoxy)-N-(5-fluoroquinolin-6-yl)-7-(1-methyl-1H-pyrazol-4-yl) quinazolin-4-amine]: the IC50 is 10.1 to 50 nM on EGFR L858R, less than 10 nM at EGFR (d746-750) and greater than 50.1 nM in assay [1].
In the same order, the values of `CC(CN(C)C)Oc1cc(N2CC3CC(C2)O3)cc2ncnc(Nc3ccc4ncccc4c3)c12` (single isomer, unassigned) [Example 67, 7-(6-oxa-3-azabicyclo[3.1.1]heptan-3-yl)-5-(((R)-1-(dimethylamino)propan-2-yl)oxy)-N-(quinolin-6-yl)quinazolin-4-amine or 7-(6-oxa-3-azabicyclo[3.1.1]heptan-3-yl)-5-(((S)-1-(dimethylamino)propan-2-yl)oxy)-N-(quinolin-6-yl)quinazolin-4-amine] are 10.1 to 50 nM, 10.1 to 50 nM and 10.1 to 50 nM.
In the same order, the values of `C[C@@H](Oc1cc(-c2cnn(CC(C)(C)O)c2)cc2ncnc(Nc3ccc4ncccc4c3F)c12)C1COC1` [Example 48, (R)-1-(4-(4-(5-fluoroquinolin-6-ylamino)-5-(1-(oxetan-3-yl)ethoxy)quinazolin-7-yl)-1H-pyrazol-1-yl)-2-methylpropan-2-ol] are less than 10 nM, less than 10 nM and no more than 10 nM.
For the compound `C[C@H](Oc1cc(-c2cnn(C)c2)cc2ncnc(Nc3ccc4ncccc4c3F)c12)[C@@H](C)O` (single isomer, unassigned) [Example 132, (2R,3S)-3-((4-((5-fluoroquinolin-6-yl)amino)-7-(1-methyl-1H-pyrazol-4-yl)quinazolin-5-yl)oxy)butan-2-ol or (2S,3R)-3-((4-((5-fluoroquinolin-6-yl)amino)-7-(1-methyl-1H-pyrazol-4-yl)quinazolin-5-yl)oxy)butan-2-ol], the IC50 at EGFR L858R (setting [2]) is less than 10 nM; at EGFR (d746-750) (setting [2]), less than 10 nM; in assay [1], no more than 10 nM.
On to `CN1CCC(Oc2cc(-c3cnn(C)c3)cc3ncnc(Nc4ccc5ncccc5c4F)c23)CC1` [Example 50, N-(5-fluoroquinolin-6-yl)-7-(1-methyl-1H-pyrazol-4-yl)-5-((1-methylpiperidin-4-yl)oxy)quinazolin-4-amine], for which the IC50 on EGFR L858R was less than 10 nM; at EGFR (d746-750), less than 10 nM; in assay [1], no more than 10 nM.
Regarding `CC[C@H](Oc1cc(-c2cnn(C)c2)cc2ncnc(Nc3ccc4ncccc4c3F)c12)C1COC1` (single isomer, unassigned) [Example 23, (S)—N-(5-fluoroquinolin-6-yl)-7-(1-methyl-1H-pyrazol-4-yl)-5-(1-(oxetan-3-yl)propoxy)quinazolin-4-amine or ((R)—N-(5-fluoroquinolin-6-yl)-7-(1-methyl-1H-pyrazol-4-yl)-5-(1-(oxetan-3-yl)propoxy)quinazolin-4-amine], the half-inhibitory concentration (IC50) was less than 10 nM on EGFR L858R (setting [2]), less than 10 nM at EGFR (d746-750) (setting [2]) and no more than 10 nM in assay [1].
Turning to `CO[C@H]1CCN(c2cc(O[C@H](C)CN(C)C)c3c(Nc4ccc5ncccc5c4F)ncnc3c2)C1` (single isomer, unassigned) [Example 87b, 5-(((R)-1-(dimethylamino)propan-2-yl)oxy)-N-(5-fluoroquinolin-6-yl)-7-((S)-3-methoxypyrrolidin-1-yl)quinazolin-4-amine or 5-(((R)-1-(dimethylamino)propan-2-yl)oxy)-N-(5-fluoroquinolin-6-yl)-7-((R)-3-methoxypyrrolidin-1-yl)quinazolin-4-amine], the IC50 at EGFR L858R (setting [2]) is less than 10 nM; on EGFR (d746-750) (setting [2]), less than 10 nM; in assay [1], no more than 10 nM.
Take `CC(=O)N1C2CC1CN(c1cc(O[C@H](C)CN(C)C)c3c(Nc4ccc5ncccc5c4F)ncnc3c1)C2` [Example 151, 1-(3-(5-(((R)-1-(dimethylamino)propan-2-yl)oxy)-4-((5-fluoroquinolin-6-yl)amino)quinazolin-7-yl)-3,6-diazabicyclo[3.1.1]heptan-6-yl)ethan-1-one]: the IC50 is greater than 50.1 nM at EGFR L858R, 10.1 to 50 nM at EGFR (d746-750) and greater than 50.1 nM in assay [1].
In the case of `C[C@H](CN(C)C)Oc1cc(N2CC[C@H](C(C)(C)O)C2)cc2ncnc(Nc3c(F)cc4ncccc4c3F)c12` [Example 88, 2—((S)-1-(4-((5,7-difluoroquinolin-6-yl)amino)-5-(((R)-1-(dimethylamino)propan-2-yl)oxy)quinazolin-7-yl)pyrrolidin-3-yl)propan-2-ol], the IC50 was less than 10 nM at EGFR L858R, less than 10 nM at EGFR (d746-750) and no more than 10 nM in assay [1].
For `CC(Oc1cc(-c2cnn(C)c2)cc2ncnc(Nc3ccc4ncccc4c3F)c12)C1(N(C)C)COC1` (stereo not drawn) [Example 142, 5-(1-(3-(dimethylamino)oxetan-3-yl)ethoxy)-N-(5-fluoroquinolin-6-yl)-7-(1-methyl-1H-pyrazol-4-yl)quinazolin-4-amine], the IC50 at EGFR L858R was less than 10 nM; on EGFR (d746-750), less than 10 nM; in assay [1], no more than 10 nM.
Regarding `CCn1cc(-c2cc(OC3CCN(C)CC3)c3c(Nc4ccc5ncccc5c4F)ncnc3c2)c(OC)n1` [Example 117, 7-(1-ethyl-3-methoxy-1H-pyrazol-4-yl)-N-(5-fluoroquinolin-6-yl)-5-((1-methylpiperidin-4-yl)oxy)quinazolin-4-amine], the results for the 50% inhibitory concentration (IC50) (on EGFR L858R; on EGFR (d746-750); in assay [1]) were 10.1 to 50 nM, less than 10 nM and 10.1 to 50 nM, respectively.
For the compound `C[C@H](CN(C)C)Oc1cc(-c2cnn(C)c2)cc2ncnc(Nc3ccc4ncc(F)cc4c3F)c12` [Example 104, (R)—N-(3,5-difluoroquinolin-6-yl)-5-((1-(dimethylamino)propan-2-yl)oxy)-7-(1-methyl-1H-pyrazol-4-yl)quinazolin-4-amine], the results for the half-inhibitory concentration (IC50) (on EGFR L858R; at EGFR (d746-750); in assay [1]) were 10.1 to 50 nM, less than 10 nM and 10.1 to 50 nM, respectively.
As for `C[C@@H](Oc1cc(-c2cnn(C)c2)cc2ncnc(Nc3c(F)cc4ncccc4c3F)c12)C1COC1` [Example 8, (R)—N-(5,7-difluoroquinolin-6-yl)-7-(1-methyl-1H-pyrazol-4-yl)-5-(1-(oxetan-3-yl)ethoxy)quinazolin-4-amine], the IC50 at EGFR L858R is less than 10 nM; at EGFR (d746-750), less than 10 nM; in assay [1], no more than 10 nM.
On to `COC1CCN(c2cc(O[C@H](C)CN(C)C)c3c(Nc4ccc5ncccc5c4F)ncnc3c2)C1` (mixture of isomers) [Example 86, 5—(((R)-1-(dimethylamino)propan-2-yl)oxy)-N-(5-fluoroquinolin-6-yl)-7-((R)-3-methoxypyrrolidin-1-yl)quinazolin-4-amine and 5-(((R)-1-(dimethylamino)propan-2-yl)oxy)-N-(5-fluoroquinolin-6-yl)-7-((S)-3-methoxypyrrolidin-1-yl)quinazolin-4-amine], for which the 50% inhibitory concentration (IC50) on EGFR L858R is less than 10 nM; on EGFR (d746-750), less than 10 nM; in assay [1] it was no more than 10 nM.
For the compound `C[C@H](CN(C)C)Oc1cc(N2CCO[C@@H](C(F)F)C2)cc2ncnc(Nc3ccc4ncccc4c3F)c12` (single isomer, unassigned) [Example 99b, 7-((R)-2-(difluoromethyl)morpholino)-5-(((R)-1-(dimethylamino)propan-2-yl)oxy)-N-(5-fluoroquinolin-6-yl)quinazolin-4-amine or 7-((S)-2-(difluoromethyl)morpholino)-5-(((R)-1-(dimethylamino)propan-2-yl)oxy)-N-(5-fluoroquinolin-6-yl)], the IC50 is 10.1 to 50 nM on EGFR L858R (setting [2]), less than 10 nM at EGFR (d746-750) (setting [2]) and 10.1 to 50 nM in assay [1].
Regarding `CCOc1cc2ncnc(Nc3ccc4ncccc4c3F)c2c(O[C@H](C)CN(C)C)n1` [Example 58, (R)-5-((1-(dimethylamino)propan-2-yl)oxy)-7-ethoxy-N-(5-fluoroquinolin-6-yl)pyrido[4,3-d]pyrimidin-4-amine], the IC50 was greater than 50.1 nM at EGFR L858R, 10.1 to 50 nM at EGFR (d746-750) and greater than 50.1 nM in assay [1].
For `C[C@@H](Oc1cc(-c2cnn(C)c2)cc2ncnc(Nc3ccc4ncccc4c3F)c12)[C@@H]1COCCN1C` (single isomer, unassigned) [Example 126], the concentration for half-maximal inhibition (IC50) was less than 10 nM on EGFR L858R (setting [2]), less than 10 nM on EGFR (d746-750) (setting [2]) and no more than 10 nM in assay [1].
With `C[C@H](CN(C)C)Oc1cc(N2CC[C@@H](C(C)(C)O)C2)cc2ncnc(Nc3ccc4ncccc4c3F)c12` [Example 72, 2—((R)-1-(5-(((R)-1-(dimethylamino)propan-2-yl)oxy)-4-((5-fluoroquinolin-6-yl)amino)quinazolin-7-yl)pyrrolidin-3-yl)propan-2-ol], the IC50 at EGFR L858R was 10.1 to 50 nM; on EGFR (d746-750), less than 10 nM; in assay [1] it was 10.1 to 50 nM.
Turning to `C[C@H](CN(C)C)Oc1cc(N2CC3CC(C2)N3)cc2ncnc(Nc3ccc4ncccc4c3F)c12` [Example 150, 7-(3,6-diazabicyclo[3.1.1]heptan-3-yl)-5-(((R)-1-(dimethylamino)propan-2-yl)oxy)-N-(5-fluoroquinolin-6-yl)quinazolin-4-amine], the IC50 (on EGFR L858R; at EGFR (d746-750); in assay [1]) was greater than 50.1 nM throughout.
Regarding `C[C@H](CN(C)C)Oc1cc(-c2cnn(C)c2)cc2ncnc(Nc3ccc4nnccc4c3)c12` [Example 11, (R)—N-(5-((1-(dimethylamino)propan-2-yl)oxy)-7-(1-methyl-1H-pyrazol-4-yl)quinazolin-4-yl)cinnolin-6-amine], the IC50 at EGFR L858R is greater than 50.1 nM; on EGFR (d746-750), 10.1 to 50 nM; in assay [1] it was greater than 50.1 nM.

For orientation: IC50 means the concentration that gives 50% inhibition.
